The source of these data is the NIST ThermoML archive (doi:10.1021/je0504109).

For data set [1] the following is noted: 298.15 K; 101 kPa; Liquid.
Data set [2] is described as follows: xn = mol fraction of the nth substance listed. Conditions: 298.15 K, 101 kPa, Liquid.

± gives the expanded uncertainty stated by the source.

For orientation: mass density means the mass of a sample divided by its volume. The term viscosity denotes the resistance of a fluid to flow. Turning to `C1COCO1` [1,3-dioxolane], in data set [1], the mass density is 1057.1 ± 0.9 kg/m3 and the viscosity was 0.531 ± 0.01 mPa·s.

In the case of `C1COCCO1` [1,4-dioxane], in data set [1], the mass density came to 1026.5 ± 0.8 kg/m3 and the viscosity came to 1.196 ± 0.02 mPa·s.

In the case of `CCCCN` [1-butanamine], in data set [1], the mass density worked out at 731.9 ± 0.6 kg/m3 and the viscosity turned out to be 0.493 ± 0.009 mPa·s.

Consider `CCCC(=O)O` [butanoic acid], for which, in data set [1], the mass density is recorded as 952.8 ± 0.8 kg/m3 and the viscosity amounted to 1.396 ± 0.023 mPa·s.

`CCCC(=O)O` [butanoic acid] + C1COCO1: the mass density in data set [2] (x2 = 0) is recorded as 952.8 ± 0.8 kg/m3; in data set [2] (x2 = 0.1167) it was 963.1 ± 0.8 kg/m3; in data set [2] (x2 = 0.2292), 973.7 ± 0.8 kg/m3; in data set [2] (x2 = 0.3376), 984.3 ± 0.8 kg/m3; in data set [2] (x2 = 0.4422), 995.3 ± 0.8 kg/m3; in data set [2] (x2 = 0.5432), 1006.1 ± 0.8 kg/m3. In addition, the mass density in data set [2] (x2 = 0.6408) came to 1016.9 ± 0.8 kg/m3; in data set [2] (x2 = 0.7351) it was 1027.2 ± 0.8 kg/m3; in data set [2] (x2 = 0.8263) it was 1037.4 ± 0.8 kg/m3; in data set [2] (x2 = 0.9146), 1047.3 ± 0.9 kg/m3. For the same compound, the viscosity in data set [2] (x2 = 0) was 1.396 ± 0.023 mPa·s; in data set [2] (x2 = 0.1167), 1.297 ± 0.021 mPa·s; in data set [2] (x2 = 0.2292), 1.202 ± 0.02 mPa·s; in data set [2] (x2 = 0.3376), 1.111 ± 0.019 mPa·s; in data set [2] (x2 = 0.4422), 1.023 ± 0.017 mPa·s; in data set [2] (x2 = 0.5432), 0.938 ± 0.016 mPa·s. Moreover, the viscosity in data set [2] (x2 = 0.6408) was 0.854 ± 0.015 mPa·s; in data set [2] (x2 = 0.7351) it was 0.77 ± 0.013 mPa·s; in data set [2] (x2 = 0.8263), 0.688 ± 0.012 mPa·s; in data set [2] (x2 = 0.9146) it was 0.608 ± 0.011 mPa·s.

Consider `CCC(C)=O` [butanone], for which, in data set [1], the mass density turned out to be 798.1 ± 0.6 kg/m3 and the viscosity was found to be 0.373 ± 0.007 mPa·s.

Turning to `CCC(C)=O` [butanone] + C1COCCO1, the mass density is given as 798.1 ± 0.6 kg/m3 in data set [2] (x2 = 0); 817 ± 0.6 kg/m3 in data set [2] (x2 = 0.0833); 836.5 ± 0.7 kg/m3 in data set [2] (x2 = 0.1698); 856.8 ± 0.7 kg/m3 in data set [2] (x2 = 0.2597); 877.9 ± 0.7 kg/m3 in data set [2] (x2 = 0.353); 900.1 ± 0.7 kg/m3 in data set [2] (x2 = 0.4501). Further, the mass density in data set [2] (x2 = 0.5511) amounted to 923.3 ± 0.7 kg/m3; in data set [2] (x2 = 0.6563), 947.2 ± 0.8 kg/m3; in data set [2] (x2 = 0.766), 972.2 ± 0.8 kg/m3; in data set [2] (x2 = 0.8805) it was 998.5 ± 0.8 kg/m3. Further, the viscosity came out at 0.373 ± 0.007 mPa·s in data set [2] (x2 = 0); 0.391 ± 0.008 mPa·s in data set [2] (x2 = 0.0833); 0.411 ± 0.008 mPa·s in data set [2] (x2 = 0.1698); 0.436 ± 0.008 mPa·s in data set [2] (x2 = 0.2597); 0.464 ± 0.009 mPa·s in data set [2] (x2 = 0.353); 0.512 ± 0.01 mPa·s in data set [2] (x2 = 0.4501). Besides, the viscosity in data set [2] (x2 = 0.5511) was 0.576 ± 0.011 mPa·s; in data set [2] (x2 = 0.6563) it was 0.65 ± 0.012 mPa·s; in data set [2] (x2 = 0.766), 0.751 ± 0.013 mPa·s; in data set [2] (x2 = 0.8805), 0.901 ± 0.015 mPa·s.

Regarding `CCC(C)=O` [butanone] + C1COCO1, in data set [2] (x2 = 0), the mass density is recorded as 798.1 ± 0.6 kg/m3 and the viscosity came to 0.373 ± 0.007 mPa·s.

Take `CCCCOC(C)=O` [butyl ethanoate]: in data set [1], the mass density was determined as 874.4 ± 0.7 kg/m3 and the viscosity stood at 0.668 ± 0.012 mPa·s.

`CCCCOC(C)=O` [butyl ethanoate] + C1COCCO1: the mass density in data set [2] (x2 = 0) amounted to 874.4 ± 0.7 kg/m3; in data set [2] (x2 = 0.1278) it was 887.5 ± 0.7 kg/m3; in data set [2] (x2 = 0.2479), 901 ± 0.7 kg/m3; in data set [2] (x2 = 0.361) it was 914.9 ± 0.7 kg/m3; in data set [2] (x2 = 0.4678), 929.2 ± 0.7 kg/m3; in data set [2] (x2 = 0.5687), 944.1 ± 0.8 kg/m3. Also, the mass density in data set [2] (x2 = 0.6641) is 959.4 ± 0.8 kg/m3; in data set [2] (x2 = 0.7547), 975.3 ± 0.8 kg/m3; in data set [2] (x2 = 0.8406) it was 991.8 ± 0.8 kg/m3; in data set [2] (x2 = 0.9223), 1008.9 ± 0.8 kg/m3. The viscosity is reported as 0.668 ± 0.012 mPa·s in data set [2] (x2 = 0); 0.682 ± 0.012 mPa·s in data set [2] (x2 = 0.1278); 0.692 ± 0.012 mPa·s in data set [2] (x2 = 0.2479); 0.708 ± 0.013 mPa·s in data set [2] (x2 = 0.361); 0.739 ± 0.013 mPa·s in data set [2] (x2 = 0.4678); 0.779 ± 0.014 mPa·s in data set [2] (x2 = 0.5687). Further, the viscosity in data set [2] (x2 = 0.6641) amounted to 0.822 ± 0.014 mPa·s; in data set [2] (x2 = 0.7547) it was 0.866 ± 0.015 mPa·s; in data set [2] (x2 = 0.8406), 0.939 ± 0.016 mPa·s; in data set [2] (x2 = 0.9223), 1.035 ± 0.017 mPa·s.

Regarding `CCCCOC(C)=O` [butyl ethanoate] + C1COCO1, in data set [2] (x2 = 0), the mass density came out at 874.4 ± 0.7 kg/m3 and the viscosity amounted to 0.668 ± 0.012 mPa·s.
